Source: paper PMC7567930 (Heliyon, 2020)
“Also recorded” adds a separate entry of the source. Read-outs that look alike come from different tables or passages of the source.

Target: Jack bean urease (Canavalia ensiformis, UniProt P07374)
Assay: Jack bean urease inhibition
Format: biochemical
[1] = read-out: IC50 ± SEM, Table 2, derivatives 6a-6f, triplicate
[2] = IC50 ± SEM, Table 1, derivatives 3a-3f, triplicate
[3] = urease inhibition IC50, values in the abstract

Sequence of Jack bean urease (P07374 whole entry, looked up): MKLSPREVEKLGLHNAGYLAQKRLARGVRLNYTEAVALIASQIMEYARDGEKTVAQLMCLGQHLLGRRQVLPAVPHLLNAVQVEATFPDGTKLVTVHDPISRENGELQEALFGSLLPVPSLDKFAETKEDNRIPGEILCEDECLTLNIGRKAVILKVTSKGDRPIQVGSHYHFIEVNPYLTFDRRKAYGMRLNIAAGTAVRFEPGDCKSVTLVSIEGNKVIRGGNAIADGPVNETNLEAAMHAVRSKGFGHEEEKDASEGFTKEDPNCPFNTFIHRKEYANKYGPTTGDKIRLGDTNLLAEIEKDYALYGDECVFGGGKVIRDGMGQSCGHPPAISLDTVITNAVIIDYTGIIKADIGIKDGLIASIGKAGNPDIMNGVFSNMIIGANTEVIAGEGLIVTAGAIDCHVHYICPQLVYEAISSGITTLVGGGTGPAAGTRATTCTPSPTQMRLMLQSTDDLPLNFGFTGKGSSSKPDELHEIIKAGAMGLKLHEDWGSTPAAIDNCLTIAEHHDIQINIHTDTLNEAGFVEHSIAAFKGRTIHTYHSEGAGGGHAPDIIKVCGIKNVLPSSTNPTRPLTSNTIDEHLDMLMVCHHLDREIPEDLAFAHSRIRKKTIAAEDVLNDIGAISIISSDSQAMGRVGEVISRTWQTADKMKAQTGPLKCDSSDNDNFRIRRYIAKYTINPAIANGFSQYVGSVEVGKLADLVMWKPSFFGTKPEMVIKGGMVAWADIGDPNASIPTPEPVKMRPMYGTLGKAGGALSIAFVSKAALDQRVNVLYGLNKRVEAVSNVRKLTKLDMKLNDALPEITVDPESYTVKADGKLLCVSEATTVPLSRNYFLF

Row | IC50 [1] | Structure (SMILES) | urease inhibition, result in words | also measured
1 | 38 ± 1.3 µM | COc1ccc2cc(C(C)n3cnc4ccccc43)ccc2c1 (racemic) [6a] | – | –
2 | 36 ± 1.7 µM | COc1ccc2cc(C(C)c3nc4ccc(Cl)cc4[nH]3)ccc2c1 (racemic) [6b, (±)-6-chloro-2-((R)-1-(2-methoxynaphthalen-6-yl)ethyl)-1H-benzo[d]imidazol] | – | –
3 | 51 ± 9.3 µM | COc1ccc2cc(C(C)c3nc4ccc(Br)cc4[nH]3)ccc2c1 (racemic) [6c, (±)-6-bromo-2-((R)-1-(2-methoxynaphthalen-6-yl)ethyl)-1H-benzo[d]imidazol] | – | –
4 | 44 ± 2.4 µM | COc1ccc2cc(C(C)c3nc4ccc(C)cc4[nH]3)ccc2c1 (racemic) [6e, (±)-6-methyl-2-((R)-1-(2-methoxynaphthalen-6-yl)ethyl)-1H-benzo[d] imidazol] | – | –
5 | 39 ± 2.4 µM | COc1ccc2cc(C(C)n3cnc4ccccc43)ccc2c1 (racemic) [6f] | – | –
6 | 99 ± 9.4 µM | COc1ccc2cc(C(C)c3nc4ccc([N+](=O)[O-])cc4[nH]3)ccc2c1 (racemic) [compound 6d, (±)-6-Nitro-2-((R)-1-(2-methoxynaphthalen-6-yl)ethyl)-1H-benzo[d]imidazol] | not showing significant urease inhibition | –
7 | – | CC(O)c1nc2ccccc2[nH]1 (single isomer, unassigned) [compound 3a, (R or S)-1-(1H-benzo[d]imidazol-2-yl)ethanol] | significant urease inhibition; also recorded: good enzyme inhibitory activity; also recorded: most potent | IC50 [2]: 22 ± 6.2 µM; IC50 [3]: 22.3 ± 6.2 µM
8 | – | CC(O)c1nc2ccccc2[nH]1 (single isomer, unassigned) [compound 3f, (R or S)-1-(1H-benzo[d]imidazol-2-yl)ethanol] | significant urease inhibition; also recorded: good enzyme inhibitory activity; also recorded: most potent | IC50 [2]: 31 ± 23.3 µM; IC50 [3]: 31.4 ± 23.3 µM
9 | – | NC(N)=S [thiourea, reference compound] | – | IC50 (read-out: IC50 of reference thiourea, standard inhibitor): 20.9 µM
